The experiment is described as follows: Inhibition of Cdk1.

As a reminder, the IC50 is the concentration that gives 50% inhibition. Lower therefore signals higher potency. The compound `NC(=O)Nc1sc(-c2cccc(Cl)c2)cc1C(=O)N[C@H]1CCCNC1` [1-(3-((S)-piperidin-3-ylcarbamoyl)-5-(3-chlorophenyl)thiophen-2-yl)urea] had an IC50 of 8.8 µM. In other words, the single-digit micromolar range. Take `NC(=O)Nc1sc(-c2cccc(F)c2)cc1C(=O)N[C@H]1CCCNC1` [1-(3-((S)-piperidin-3-ylcarbamoyl)-5-(3-fluorophenyl)thiophen-2-yl)urea]: the midpoint of inhibition, the IC50, lay at 5.6 µM. As for `CCN(CC)CCOc1ccc(-c2cc(C(=O)NC3CCNCC3)c(NC(N)=O)s2)cc1` [1-(5-(4-(2-(diethylamino)ethoxy)phenyl)-3-(piperidin-4-ylcarbamoyl)thiophen-2-yl)urea], the IC50 is > 69 µM. The figure for `CCN(CC)CCOc1ccc(-c2cc(C(=O)Nc3cccnc3)c(NC(N)=O)s2)cc1` [1-(5-(4-(2-(diethylamino)ethoxy)phenyl)-3-(pyridin-3-ylcarbamoyl)thiophen-2-yl)urea] is 44 µM.

In the case of `CCN(CC)CCOc1ccc(-c2cc(C(=O)NC3CCNC3)c(NC(N)=O)s2)cc1` (configuration not stated) [1-(5-(4-(2-(diethylamino)ethoxy)phenyl)-3-(pyrrolidin-3-ylcarbamoyl)thiophen-2-yl)urea], the IC50 is > 100 µM. The figure for `NC(=O)Nc1sc(-c2ccc(C(=O)N3CCCCC3)cc2)cc1C(=O)N[C@H]1CCCNC1` [(S)-1-(3-(piperidin-3-ylcarbamoyl)-5-(4-(piperidine-1-carbonyl)phenyl)thiophen-2-yl)urea] is 10.8 µM; for `NC(=O)Nc1sc(-c2ccncc2)cc1C(=O)N[C@H]1CCCNC1` [(S)-1-(3-(piperidin-3-ylcarbamoyl)-5-(pyridin-4-yl)thiophen-2-yl)urea] it is 1.8 µM; for `Cc1ccc(-c2cc(C(=O)N[C@H]3CCCNC3)c(NC(N)=O)s2)cc1` [(S)-1-(3-(piperidin-3-ylcarbamoyl)-5-p-tolylthiophen-2-yl)urea] it is 5.5 µM.

Compound `CN(C)c1ccc(-c2cc(C(=O)N[C@H]3CCCNC3)c(NC(N)=O)s2)cc1` [(S)-1-(5-(4-(dimethylamino)phenyl)-3-(piperidin-3-ylcarbamoyl)thiophen-2-yl)urea] returned an IC50 of 8.4 µM. In the case of `CN(C)C(=O)c1ccc(-c2cc(C(=O)N[C@H]3CCCNC3)c(NC(N)=O)s2)cc1` [(S)-1-(5-(4-(dimethylcarbamoyl)phenyl)-3-(piperidin-3-ylcarbamoyl)thiophen-2-yl)urea], the midpoint of inhibition, the IC50, lay at 3.7 µM. The figure for `CS(=O)(=O)c1ccc(-c2cc(C(=O)N[C@H]3CCCNC3)c(NC(N)=O)s2)cc1` [(S)-1-(5-(4-(methylsulfonyl)phenyl)-3-(piperidin-3-ylcarbamoyl)thiophen-2-yl)urea] is 2.2 µM. Compound `NC(=O)Nc1sc(-c2ccc(F)cc2)cc1C(=O)N[C@H]1CCCNC1` [(S)-1-(5-(4-fluorophenyl)-3-(piperidin-3-ylcarbamoyl)thiophen-2-yl)urea] displayed an IC50 of 3.3 µM.

Source of the values: BindingDB's records for doi:10.1016/j.bmcl.2008.05.016 (Astrazeneca R&D Boston, 2008).
